Assay results published in patent publication US10328075B2, “Method of treatment and compounds for use therein” (Baker Heart and Diabetes Institute, priority 2015, dated 2019).

Test system: adult mouse cardiac fibroblasts
Assay: TGF-β stimulation of adult mouse cardiac fibroblasts, CTGF and IL-1β expression
Format: cell-based
Conditions: 10 μM, 24 h TGF-β
Experimental: Isolation and culture of primary rat cardiomyocytes and mouse cardiac fibroblasts: All materials used for cell isolation were of tissue culture grade. Isolation of primary neonatal rat cardiac cardiomyocytes (NRCM) and adult mouse cardiac fibroblasts (AMCF) was performed by serial enzymatic digestion, as previously described (Irvine et al 2012 & Irvine et al. 3) NRCM were plated onto either 12-well tissue culture plates (for simulated ischemia-reperfusion, via hypoxia-reoxygenation, H-R) or 60 mm tissue culture dishes (for gene expression) at a density of 1.3×10^5 cells/cm^2, in the presence of 1% 5-bromo-2′-deoxyuridine. AMCF (passage #3) were seeded onto 60 mm tissue culture dishes at 9.5×10^4 cells/cm^2 and allowed to grow to 80% confluence prior to study. […] At the end of hypoxia, Kreb's buffer was replaced with fresh, sterile-filtered Kreb's buffer, in the presence or absence of FPR agonists Cmpd17b, Cmpd43 (both 1 μM or vehicle, and NRCM were subjected to 48 h reoxygenation at 37° C. At the end of 48 h reoxygenation, NRCM supernatant was collected for assessment of cardiomyocyte injury. Cardiomyocyte release of cTnI was determined using a commercially available, high-sensitivity rat cTnI ELISA kit (Life Diagnostic Inc.) as per the manufacturer's instructions. Separate NRVM on 60 mm dishes were incubated for 48 h at 37° C. in serum-free DMEM, in the presence or absence of FPR agonists Cmpd17b, Cmpd43 (both 1 μM) or vehicle. At the end of 48 h, RNA was extracted and real-time PCR performed (as described previously (Huynh et al. 2012)), to determine the relative gene expression of rat Fprs (rFpr1, rFpr2 and rFpr3, expressed as the threshold cycle number Ct subtracted from the maximum cycle number utilized, 40). […]
Cardiomyocytes injury responses in vitro: Neonatal rat cardiomyocytes and adult mouse cardiofibroblasts were isolated and cultured as described (online Supplement). […] Cardiomyocyte injury was assessed by measurement of cardiac cTnI in cardiomyocyte supernatant. […]

SMILES	TGF-β-induced pro-inflammatory IL-1β response in cardiofibroblasts	Pro-fibrotic CTGF response to TGF-β in cardiofibroblasts
COc1cccc(Cc2cc(C)nn(C(C)C(=O)Nc3ccc(Br)cc3)c2=O)c1 (stereo not drawn) [BIDI-001, N-(4-bromophenyl)-2-[5-(3-methoxybenzyl)-3-methyl-6-oxo-6H-pyridazin-1-yl]-propionamide]	not	–
CC(C)C1C(NC(=O)Nc2ccc(Cl)cc2)C(=O)N(c2ccccc2)N1C (stereo not drawn) [BIDI-002]	tended to persist	remained significant
